The values that follow come from PubChem BioAssay AID1919008 (Molecular Pharmacology Branch, DTP, NCI, 2023).

The subject of the assay is DMS-114 complex spheroids with HUVEC/MSC, growth % test/control. Put plainly: Anticancer human tumor DMS-114 cell line growth inhibition [AhR].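 For all read-outs here: spheroids exposed to agents for 7 days before readout.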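 For viability, T/C: 100% = DMSO vehicle control wells.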 Particulars: for viability, T/C: stronger effect = lower value. The essentials:
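Spheroids combined tumor cells with HUVEC endothelial cells and human MSCs as stroma. AhR antagonists were paired with standard or investigational drugs, each dosed in half-log steps down from near clinical Cmax, or from 10 microM where Cmax was unknown.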

The mark [1] stands for this setting: curve of first compound, second compound 0.1 µM.
[2] abbreviates: curve of first compound, second compound 0.316 µM.
Where [3] appears, read: curve of first compound, second compound 1 µM.
Setting [4] is: curve of first compound, second compound 3.16 µM.
[5] abbreviates: curve of first compound, second compound 10 µM.
Where [6] appears, read: second compound 0.1 µM, first compound 0.00316 µM.
[7] abbreviates: second compound 0.1 µM, first compound 0.01 µM.
Where [8] appears, read: second compound 0.1 µM, first compound 0.0316 µM.
The mark [9] stands for this setting: second compound 0.1 µM, first compound 0.1 µM.
Where [10] appears, read: second compound 0.316 µM, first compound 0.00316 µM.
Setting [11] is: second compound 0.316 µM, first compound 0.01 µM.
The mark [12] stands for this setting: second compound 0.316 µM, first compound 0.0316 µM.
[13] abbreviates: second compound 0.316 µM, first compound 0.1 µM.
Where [14] appears, read: second compound 1 µM, first compound 0.00316 µM.
[15] abbreviates: second compound 1 µM, first compound 0.01 µM.
Where [16] appears, read: second compound 1 µM, first compound 0.0316 µM.
The mark [17] stands for this setting: second compound 1 µM, first compound 0.1 µM.
[18] abbreviates: second compound 3.16 µM, first compound 0.00316 µM.
The mark [19] stands for this setting: second compound 3.16 µM, first compound 0.01 µM.
Setting [20] is: second compound 3.16 µM, first compound 0.0316 µM.
Where [21] appears, read: second compound 3.16 µM, first compound 0.1 µM.
Where [22] appears, read: second compound 10 µM, first compound 0.00316 µM.
Where [23] appears, read: second compound 10 µM, first compound 0.01 µM.
[24] abbreviates: second compound 10 µM, first compound 0.0316 µM.
[25] abbreviates: second compound 10 µM, first compound 0.1 µM.

pIC50: −log10 of the molar value. Where “and” joins values, the source holds several entries; their conditions need not be identical. Equal entries are not always repeated.

Consider `CC1COCCN1c1cc(-c2ccnn2C)c2ccnc(-c3ccn[nH]3)c2n1` (stereo unspecified) + Cc1ccccc1N=Nc1ccc(NC(=O)c2ccnn2C)c(C)c1, for which the pIC50 (usually the IC50 on a negative log10 scale, so that one unit is a factor of ten) by setting is: under setting [1], 6.21; under setting [2], 6.30; under setting [3], 6.32; under setting [4], 6.31; under setting [5], 6.27. For the same molecule, the viability, T/C (usually the ratio of treated to control) is, setting by setting: under setting [6], 110%; under setting [7], 96.3%; under setting [8], 98.1%; under setting [9], 85.8%; (second compound 0.1 µM, first compound 0.316 µM) 68.6%; (second compound 0.1 µM, first compound 1 µM) 37.2%. Moreover, the viability, T/C by setting is: under setting [10], 94.3%; under setting [11], 106%; under setting [12], 95.2%; under setting [13], 83.8%; (second compound 0.316 µM, first compound 0.316 µM) 58.7%; (second compound 0.316 µM, first compound 1 µM) 37.2%. For the same molecule, the viability, T/C runs as follows: under setting [14], 97.8%; under setting [15], 98.2%; under setting [16], 101%; under setting [17], 84.8%; (second compound 1 µM, first compound 0.316 µM) 57.4%; (second compound 1 µM, first compound 1 µM) 37.3%. For the same molecule, the viability, T/C under setting [18] was 99.7%; the viability, T/C under setting [19] is 101%; the viability, T/C under setting [20] was 92.1%; the viability, T/C under setting [21] was 81.5%; the viability, T/C (second compound 3.16 µM, first compound 0.316 µM) is 58%; the viability, T/C (second compound 3.16 µM, first compound 1 µM) was 37%. The viability, T/C by setting is: under setting [22], 89.9%; under setting [23], 89.2%; under setting [24], 89.1%; under setting [25], 66.2%; (second compound 10 µM, first compound 0.316 µM) 60.5%; (second compound 10 µM, first compound 1 µM) 41%.

Take `O=C(C=Cn1cnc(-c2cc(C(F)(F)F)cc(C(F)(F)F)c2)n1)NNc1cnccn1` + Cc1ccccc1N=Nc1ccc(NC(=O)c2ccnn2C)c(C)c1: the pIC50 was 6.08 under setting [1]; 6.09 under setting [2]; 6.04 under setting [3]; 6.06 under setting [4]; 6.01 under setting [5]. Besides, the viability, T/C (second compound 0.1 µM, first compound 0.00949 µM) is 111%; the viability, T/C (second compound 0.1 µM, first compound 0.03 µM) is 114%; the viability, T/C (second compound 0.1 µM, first compound 0.0949 µM) was 124%; the viability, T/C (second compound 0.1 µM, first compound 0.3 µM) is 93.4%; the viability, T/C (second compound 0.1 µM, first compound 0.949 µM) was 45%; the viability, T/C (second compound 0.1 µM, first compound 3 µM) was 18.2%. The viability, T/C (second compound 0.316 µM, first compound 0.00949 µM) was 95.8%; the viability, T/C (second compound 0.316 µM, first compound 0.03 µM) is 125%; the viability, T/C (second compound 0.316 µM, first compound 0.0949 µM) is 127%; the viability, T/C (second compound 0.316 µM, first compound 0.3 µM) is 89.1%; the viability, T/C (second compound 0.316 µM, first compound 0.949 µM) was 45.2%; the viability, T/C (second compound 0.316 µM, first compound 3 µM) was 17.4%. Also, the viability, T/C was 100% (second compound 1 µM, first compound 0.00949 µM); 124% (second compound 1 µM, first compound 0.03 µM); 144% (second compound 1 µM, first compound 0.0949 µM); 91.6% (second compound 1 µM, first compound 0.3 µM); 51.8% (second compound 1 µM, first compound 0.949 µM); 20.6% (second compound 1 µM, first compound 3 µM). The viability, T/C was 99.7% (second compound 3.16 µM, first compound 0.00949 µM); 110% (second compound 3.16 µM, first compound 0.03 µM); 124% (second compound 3.16 µM, first compound 0.0949 µM); 88% (second compound 3.16 µM, first compound 0.3 µM); 48.9% (second compound 3.16 µM, first compound 0.949 µM); 21.9% (second compound 3.16 µM, first compound 3 µM). The viability, T/C was 98.5% (second compound 10 µM, first compound 0.00949 µM); 91.5% (second compound 10 µM, first compound 0.03 µM); 95.5% (second compound 10 µM, first compound 0.0949 µM); 75.6% (second compound 10 µM, first compound 0.3 µM); 51.5% (second compound 10 µM, first compound 0.949 µM); 30.4% (second compound 10 µM, first compound 3 µM).

As to `CCc1c2c(nc3ccc(O)cc13)-c1cc3c(c(=O)n1C2)COC(=O)[C@]3(O)CC`, the viability, T/C is 67.7% and 96.1% and 59.2% (compound 0.000949 µM); 40.4% and 91.2% and 42.6% (compound 0.003 µM); 20% and 50% and 21.4% (compound 0.00949 µM); 13.4% and 36.5% and 21.1% (compound 0.03 µM); 14.4% and 37.9% and 15.2% (compound 0.0949 µM); 14.4% and 35.1% and 16.7% (compound 0.3 µM). Moreover, the pIC50 (curve of compound) is 8.70 and 8.02 and 8.75.

In the case of `Cn1ncnc1C1c2n[nH]c(=O)c3cc(F)cc(c23)NC1c1ccc(F)cc1` (stereo unspecified) + Cc1ccccc1N=Nc1ccc(NC(=O)c2ccnn2C)c(C)c1, the pIC50 under setting [1] was below 7.00; the pIC50 under setting [2] was below 7.00; the pIC50 under setting [3] is below 7.00; the pIC50 under setting [4] was below 7.00; the pIC50 under setting [5] is below 7.00. Besides, the viability, T/C was 118% (second compound 0.1 µM, first compound 0.000316 µM); 101% (second compound 0.1 µM, first compound 0.001 µM); 111% under setting [6]; 110% under setting [7]; 120% under setting [8]; 107% under setting [9]. The viability, T/C reads like this: (second compound 0.316 µM, first compound 0.000316 µM) 104%; (second compound 0.316 µM, first compound 0.001 µM) 105%; under setting [10], 104%; under setting [11], 113%; under setting [12], 104%; under setting [13], 112%. Further, the viability, T/C runs as follows: (second compound 1 µM, first compound 0.000316 µM) 103%; (second compound 1 µM, first compound 0.001 µM) 112%; under setting [14], 108%; under setting [15], 101%; under setting [16], 111%; under setting [17], 113%. Moreover, the viability, T/C runs as follows: (second compound 3.16 µM, first compound 0.000316 µM) 96%; (second compound 3.16 µM, first compound 0.001 µM) 104%; under setting [18], 102%; under setting [19], 111%; under setting [20], 98.3%; under setting [21], 104%. Further, the viability, T/C reads like this: (second compound 10 µM, first compound 0.000316 µM) 93.5%; (second compound 10 µM, first compound 0.001 µM) 93.3%; under setting [22], 90%; under setting [23], 96.2%; under setting [24], 95.1%; under setting [25], 95%.

On to `COc1cccc2c1C(=O)c1c(O)c3c(c(O)c1C2=O)CC(O)(C(=O)CO)CC3OC1CC(N)C(O)C(C)O1` (stereo unspecified), for which the viability, T/C is 23.9% and 68.6% and 44.3% (compound 0.0316 µM); 18% and 54.1% and 32.1% (compound 0.1 µM); 4.97% and 18.6% and 9.53% (compound 0.316 µM); 0.27% and 1.97% and 1.19% (compound 1 µM); 0.18% and 0.45% and 0.38% (compound 3.16 µM); 0.28% and 0.73% and 0.56% (compound 10 µM). Also, the negative logarithm of the IC50 (pIC50) (curve of compound) is > 7.50 and 6.94.

For `COc1cc(C2c3cc4c(cc3C(OC3OC5COC(C)OC5C(O)C3O)C3COC(=O)C23)OCO4)cc(OC)c1O` (stereo unspecified), the viability, T/C is, setting by setting: (compound 0.0316 µM) 96.4% and 99.5% and 94.3%; (compound 0.1 µM) 85.2% and 85.9% and 99%; (compound 0.316 µM) 57.3% and 77% and 89.2%; (compound 1 µM) 23.7% and 34.1% and 60.9%; (compound 3.16 µM) 16.9% and 30.2% and 40.8%; (compound 10 µM) 9.04% and 15.1% and 30.3%. For the same molecule, the pIC50 (curve of compound) is 6.40 and 6.17 and 5.74.
